Results published in ChEMBL document CHEMBL1201862, “PubChem BioAssay data set” (2004).
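Five concentrations, 48 hours, 96-well plates. GI50 is the concentration that inhibits growth by half.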 Active and inactive are the calls of the source. Rule as the data show it: active = GI50 up to about 1.1 µM and inactive = higher.

What was measured:
Assay in all cases: DTP human tumour cell line panel, 48 h
786-0 = tested on: 786-0
A498 = tested on: A498
A549 = tested on: A549
ACHN = tested on: ACHN
CAKI-1 = tested on: CAKI-1
CCRF-CEM = tested on: CCRF-CEM
COLO 205 = tested on: COLO 205
DLD-1 = tested on: DLD-1
DMS-114 = tested on: DMS-114
DMS-273 = tested on: DMS-273
EKVX = tested on: EKVX
HCC 2998 = tested on: HCC 2998
HCT-15 = tested on: HCT-15
HL-60 = tested on: HL-60
HOP-18 = tested on: HOP-18
HOP-62 = tested on: HOP-62
HOP-92 = tested on: HOP-92
HT-29 = tested on: HT-29
IGROV-1 = tested on: IGROV-1
K562 = tested on: K562
KM-20L2 = tested on: KM-20L2
KM12 = tested on: KM12
LOX IMVI = tested on: LOX IMVI
LXFL 529 = tested on: LXFL 529
M14 = tested on: M14
M19-MEL = tested on: M19-MEL
MOLT-4 = tested on: MOLT-4
Malme-3M = tested on: Malme-3M
NCI-H226 = tested on: NCI-H226
NCI-H23 = tested on: NCI-H23
NCI-H460 = tested on: NCI-H460
NCI-H522 = tested on: NCI-H522
OVCAR-3 = tested on: OVCAR-3
OVCAR-4 = tested on: OVCAR-4
OVCAR-5 = tested on: OVCAR-5
OVCAR-8 = tested on: OVCAR-8
RPMI-8226 = tested on: RPMI-8226
RXF 393 = tested on: RXF 393
RXF 631 = tested on: RXF 631
SF-268 = tested on: SF-268
SF-295 = tested on: SF-295
SF-539 = tested on: SF-539
SK-MEL-28 = tested on: SK-MEL-28
SK-MEL-2 = tested on: SK-MEL-2
SK-MEL-5 = tested on: SK-MEL-5
SK-OV-3 = tested on: SK-OV-3
SN12C = tested on: SN12C
SNB-19 = tested on: SNB-19
SNB-75 = tested on: SNB-75
SR = tested on: SR
SW-620 = tested on: SW-620
TK-10 = tested on: TK-10
U-251 = tested on: U-251
UACC-257 = tested on: UACC-257
UACC-62 = tested on: UACC-62
UO-31 = tested on: UO-31
XF498 = tested on: XF498
HCT-116 = tested on: HCT-116

CCN(CC)CCCN(c1cc(OC)cc2nccnc12)S(=O)(=O)c1ccc(C)cc1
GI50 (786-0): > 100 µM (inactive)
GI50 (A498): > 100 µM (inactive)
GI50 (A549): > 100 µM (inactive)
GI50 (ACHN): > 100 µM (inactive)
GI50 (CAKI-1): > 100 µM (inactive)
GI50 (CCRF-CEM): 99.1 µM (inactive)
GI50 (COLO 205): > 100 µM (inactive)
GI50 (DLD-1): > 100 µM (inactive)
GI50 (DMS-114): > 100 µM (inactive)
GI50 (DMS-273): > 100 µM (inactive)
GI50 (EKVX): > 100 µM (inactive)
GI50 (HCC 2998): > 100 µM (inactive)
GI50 (HCT-15): > 100 µM
GI50 (HL-60): > 100 µM (inactive)
GI50 (HOP-18): > 100 µM (inactive)
GI50 (HOP-62): > 100 µM (inactive)
GI50 (HOP-92): > 100 µM (inactive)
GI50 (HT-29): > 100 µM (inactive)
GI50 (IGROV-1): > 100 µM (inactive)
GI50 (K562): > 100 µM (inactive)
GI50 (KM-20L2): > 100 µM (inactive)
GI50 (KM12): > 100 µM (inactive)
GI50 (LOX IMVI): > 100 µM (inactive)
GI50 (LXFL 529): > 100 µM (inactive)
GI50 (M14): > 100 µM (inactive)
GI50 (M19-MEL): > 100 µM (inactive)
GI50 (MOLT-4): 74.6 µM (inactive)
GI50 (Malme-3M): > 100 µM (inactive)
GI50 (NCI-H226): > 100 µM (inactive)
GI50 (NCI-H23): > 100 µM (inactive)
GI50 (NCI-H460): > 100 µM (inactive)
GI50 (NCI-H522): > 100 µM (inactive)
GI50 (OVCAR-3): > 100 µM (inactive)
GI50 (OVCAR-4): > 100 µM (inactive)
GI50 (OVCAR-5): > 100 µM (inactive)
GI50 (OVCAR-8): > 100 µM (inactive)
GI50 (RPMI-8226): > 100 µM (inactive)
GI50 (RXF 393): 41.1 µM (inactive)
GI50 (RXF 631): > 100 µM (inactive)
GI50 (SF-268): > 100 µM (inactive)
GI50 (SF-295): > 100 µM (inactive)
GI50 (SF-539): > 100 µM (inactive)
GI50 (SK-MEL-28): > 100 µM (inactive)
GI50 (SK-MEL-2): > 100 µM (inactive)
GI50 (SK-MEL-5): > 100 µM (inactive)
GI50 (SK-OV-3): > 100 µM (inactive)
GI50 (SN12C): > 100 µM (inactive)
GI50 (SNB-19): > 100 µM (inactive)
GI50 (SNB-75): 37.2 µM (inactive)
GI50 (SR): > 100 µM (inactive)
GI50 (SW-620): > 100 µM (inactive)
GI50 (TK-10): > 100 µM (inactive)
GI50 (U-251): > 100 µM (inactive)
GI50 (UACC-257): > 100 µM (inactive)
GI50 (UACC-62): > 100 µM (inactive)
GI50 (UO-31): > 100 µM (inactive)
GI50 (XF498): > 100 µM (inactive)

CC1=C2CCCC2C/C(=N/Nc2ccc([N+](=O)[O-])cc2[N+](=O)[O-])CC1 (stereo unspecified)
GI50 (786-0): > 100 µM (inactive)
GI50 (A498): > 100 µM (inactive)
GI50 (A549): > 100 µM (inactive)
GI50 (ACHN): > 100 µM (inactive)
GI50 (CAKI-1): > 100 µM (inactive)
GI50 (COLO 205): > 100 µM (inactive)
GI50 (DMS-114): > 100 µM (inactive)
GI50 (DMS-273): > 100 µM (inactive)
GI50 (HCC 2998): > 100 µM (inactive)
GI50 (HCT-116): > 100 µM (inactive)
GI50 (HCT-15): > 100 µM
GI50 (HL-60): 11.1 µM (inactive)
GI50 (HOP-18): > 100 µM (inactive)
GI50 (HOP-62): > 100 µM (inactive)
GI50 (HOP-92): > 100 µM (inactive)
GI50 (HT-29): > 100 µM (inactive)
GI50 (IGROV-1): > 100 µM (inactive)
GI50 (K562): > 100 µM (inactive)
GI50 (KM-20L2): > 100 µM (inactive)
GI50 (KM12): > 100 µM (inactive)
GI50 (LOX IMVI): > 100 µM (inactive)
GI50 (LXFL 529): > 100 µM (inactive)
GI50 (M14): > 100 µM (inactive)
GI50 (M19-MEL): > 100 µM (inactive)
GI50 (MOLT-4): > 100 µM (inactive)
GI50 (Malme-3M): > 100 µM (inactive)
GI50 (NCI-H226): > 100 µM (inactive)
GI50 (NCI-H23): > 100 µM (inactive)
GI50 (NCI-H460): > 100 µM (inactive)
GI50 (NCI-H522): > 100 µM (inactive)
GI50 (OVCAR-3): > 100 µM (inactive)
GI50 (OVCAR-4): > 100 µM (inactive)
GI50 (OVCAR-5): > 100 µM (inactive)
GI50 (OVCAR-8): > 100 µM (inactive)
GI50 (RPMI-8226): > 100 µM (inactive)
GI50 (RXF 631): > 100 µM (inactive)
GI50 (SF-268): > 100 µM (inactive)
GI50 (SF-295): > 100 µM (inactive)
GI50 (SF-539): > 100 µM (inactive)
GI50 (SK-MEL-28): > 100 µM (inactive)
GI50 (SK-MEL-2): > 100 µM (inactive)
GI50 (SK-MEL-5): > 100 µM (inactive)
GI50 (SK-OV-3): > 100 µM (inactive)
GI50 (SN12C): > 100 µM (inactive)
GI50 (SNB-19): > 100 µM (inactive)
GI50 (SNB-75): 69.7 µM (inactive)
GI50 (SR): > 100 µM (inactive)
GI50 (SW-620): > 100 µM (inactive)
GI50 (TK-10): > 100 µM (inactive)
GI50 (U-251): > 100 µM (inactive)
GI50 (UACC-257): > 100 µM (inactive)
GI50 (UACC-62): > 100 µM (inactive)
GI50 (UO-31): > 100 µM (inactive)
GI50 (XF498): > 100 µM (inactive)
